From ChEMBL document CHEMBL1129051, “9-Dihydroxy-2,3,7,11b-tetrahydro-1H-naph[1,2,3-de]isoquinoline: a potent full dopamine D1 agonist containing a rigid-beta-phenyldopamine pharmacophore” (J Med Chem, 1996)

Columns and labels:
[1] = biological target: D(1A) dopamine receptor (Homo sapiens) (UniProt P21728); experiment: Hill slope was determined for the compound in D1 receptor binding assay
[2] = biological target: D(2) dopamine receptor (Homo sapiens) (UniProt P14416)
Sequence of D(2) dopamine receptor (Homo sapiens) (P14416 whole entry): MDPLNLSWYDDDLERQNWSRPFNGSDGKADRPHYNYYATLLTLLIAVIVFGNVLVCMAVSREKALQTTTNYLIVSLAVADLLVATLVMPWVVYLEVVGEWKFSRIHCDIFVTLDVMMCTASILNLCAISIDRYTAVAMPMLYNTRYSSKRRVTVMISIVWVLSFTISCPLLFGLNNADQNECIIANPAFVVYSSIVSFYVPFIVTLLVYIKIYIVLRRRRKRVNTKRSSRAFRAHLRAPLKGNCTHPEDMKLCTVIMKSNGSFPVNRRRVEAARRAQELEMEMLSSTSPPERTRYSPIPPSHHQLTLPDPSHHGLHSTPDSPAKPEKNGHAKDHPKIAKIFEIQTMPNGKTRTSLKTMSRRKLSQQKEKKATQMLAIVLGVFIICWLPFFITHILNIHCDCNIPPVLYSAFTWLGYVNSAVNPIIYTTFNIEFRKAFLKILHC
Description: Hill slope was determined for the compound in D2 receptor binding assay

Sequence of D(1A) dopamine receptor (Homo sapiens) (P21728 whole entry): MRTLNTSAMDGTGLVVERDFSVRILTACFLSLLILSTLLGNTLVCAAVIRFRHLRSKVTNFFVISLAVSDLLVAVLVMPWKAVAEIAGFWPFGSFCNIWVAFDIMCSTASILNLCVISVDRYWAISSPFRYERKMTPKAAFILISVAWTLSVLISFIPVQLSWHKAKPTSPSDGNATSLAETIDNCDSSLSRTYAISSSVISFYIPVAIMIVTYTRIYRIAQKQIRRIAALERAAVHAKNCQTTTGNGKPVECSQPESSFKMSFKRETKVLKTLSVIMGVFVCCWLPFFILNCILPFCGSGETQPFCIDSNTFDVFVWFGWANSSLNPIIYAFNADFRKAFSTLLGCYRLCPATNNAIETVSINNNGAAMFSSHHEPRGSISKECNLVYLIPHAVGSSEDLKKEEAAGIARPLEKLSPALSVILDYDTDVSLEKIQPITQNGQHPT

Oc1cc2c(cc1O)[C@@H](c1ccccc1)CNCC2
nH [1]: 0.75

CN1CCc2cc(Cl)c(O)cc2[C@@H](c2ccccc2)C1
nH [1]: 1.05

Oc1ccc2c(c1O)Cc1cccc3c1[C@H]2CNC3
nH [1]: 0.66

CN(C)CCCN1c2ccccc2Sc2ccc(Cl)cc21
nH [2]: 0.93

Oc1cc2c(cc1O)[C@H]1c3ccccc3CN[C@@H]1CC2
nH [2]: 0.72
nH [1]: 0.65
